According to ChEMBL document CHEMBL5291721, “A preclinical secondary pharmacology resource illuminates target-adverse drug reaction associations of marketed drugs” (Nat Commun, 2023):

Columns and labels:
[1] = molecular target: T1, Alpha-2A adrenergic receptor (Homo sapiens, UniProt P08913); assay type: functional, cell-based
T1 sequence (P08913 whole entry): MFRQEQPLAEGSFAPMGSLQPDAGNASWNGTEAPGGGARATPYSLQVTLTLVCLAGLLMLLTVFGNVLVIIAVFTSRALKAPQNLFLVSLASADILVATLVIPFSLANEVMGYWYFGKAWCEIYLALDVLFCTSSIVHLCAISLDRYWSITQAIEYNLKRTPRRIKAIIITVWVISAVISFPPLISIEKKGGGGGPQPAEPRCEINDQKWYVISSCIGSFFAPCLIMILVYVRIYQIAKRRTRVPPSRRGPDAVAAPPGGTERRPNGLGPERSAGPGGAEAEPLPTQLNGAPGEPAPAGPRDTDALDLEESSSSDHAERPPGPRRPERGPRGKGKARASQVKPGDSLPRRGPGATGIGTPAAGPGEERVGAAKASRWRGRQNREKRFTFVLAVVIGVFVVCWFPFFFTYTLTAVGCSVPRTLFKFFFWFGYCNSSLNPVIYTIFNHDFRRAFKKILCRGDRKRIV

[2] = molecular target: Beta-2 adrenergic receptor (Homo sapiens, UniProt P07550)
[3] = molecular target: T2, Progesterone receptor (Homo sapiens, UniProt P06401)
T2 sequence (P06401 whole entry): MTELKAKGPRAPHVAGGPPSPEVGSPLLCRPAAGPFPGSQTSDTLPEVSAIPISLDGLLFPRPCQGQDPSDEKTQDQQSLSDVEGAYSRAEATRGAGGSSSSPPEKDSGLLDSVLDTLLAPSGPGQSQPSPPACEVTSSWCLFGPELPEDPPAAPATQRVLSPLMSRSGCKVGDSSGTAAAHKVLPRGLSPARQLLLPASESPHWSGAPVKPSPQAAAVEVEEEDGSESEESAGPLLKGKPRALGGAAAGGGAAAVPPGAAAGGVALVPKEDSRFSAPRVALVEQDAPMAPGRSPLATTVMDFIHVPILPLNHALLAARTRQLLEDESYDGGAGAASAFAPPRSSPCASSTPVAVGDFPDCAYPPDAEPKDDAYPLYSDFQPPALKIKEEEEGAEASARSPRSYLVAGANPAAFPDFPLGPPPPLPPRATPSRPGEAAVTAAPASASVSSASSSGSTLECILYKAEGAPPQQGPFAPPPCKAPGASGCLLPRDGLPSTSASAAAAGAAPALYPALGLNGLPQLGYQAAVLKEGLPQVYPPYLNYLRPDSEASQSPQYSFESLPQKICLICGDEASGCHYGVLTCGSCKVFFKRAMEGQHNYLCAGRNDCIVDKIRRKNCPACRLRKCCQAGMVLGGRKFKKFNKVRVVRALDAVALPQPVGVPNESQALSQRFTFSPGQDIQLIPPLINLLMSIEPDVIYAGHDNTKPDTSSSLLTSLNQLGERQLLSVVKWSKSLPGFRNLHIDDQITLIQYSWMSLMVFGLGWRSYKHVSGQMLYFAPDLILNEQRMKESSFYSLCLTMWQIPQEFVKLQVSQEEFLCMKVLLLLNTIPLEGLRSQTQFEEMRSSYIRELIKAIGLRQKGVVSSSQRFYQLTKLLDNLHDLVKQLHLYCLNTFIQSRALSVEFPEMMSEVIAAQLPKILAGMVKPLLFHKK

[4] = molecular target: 3',5'-cyclic-AMP phosphodiesterase 4D (Homo sapiens, UniProt Q08499); assay type: functional
Chain of 3',5'-cyclic-AMP phosphodiesterase 4D (Q08499 whole entry): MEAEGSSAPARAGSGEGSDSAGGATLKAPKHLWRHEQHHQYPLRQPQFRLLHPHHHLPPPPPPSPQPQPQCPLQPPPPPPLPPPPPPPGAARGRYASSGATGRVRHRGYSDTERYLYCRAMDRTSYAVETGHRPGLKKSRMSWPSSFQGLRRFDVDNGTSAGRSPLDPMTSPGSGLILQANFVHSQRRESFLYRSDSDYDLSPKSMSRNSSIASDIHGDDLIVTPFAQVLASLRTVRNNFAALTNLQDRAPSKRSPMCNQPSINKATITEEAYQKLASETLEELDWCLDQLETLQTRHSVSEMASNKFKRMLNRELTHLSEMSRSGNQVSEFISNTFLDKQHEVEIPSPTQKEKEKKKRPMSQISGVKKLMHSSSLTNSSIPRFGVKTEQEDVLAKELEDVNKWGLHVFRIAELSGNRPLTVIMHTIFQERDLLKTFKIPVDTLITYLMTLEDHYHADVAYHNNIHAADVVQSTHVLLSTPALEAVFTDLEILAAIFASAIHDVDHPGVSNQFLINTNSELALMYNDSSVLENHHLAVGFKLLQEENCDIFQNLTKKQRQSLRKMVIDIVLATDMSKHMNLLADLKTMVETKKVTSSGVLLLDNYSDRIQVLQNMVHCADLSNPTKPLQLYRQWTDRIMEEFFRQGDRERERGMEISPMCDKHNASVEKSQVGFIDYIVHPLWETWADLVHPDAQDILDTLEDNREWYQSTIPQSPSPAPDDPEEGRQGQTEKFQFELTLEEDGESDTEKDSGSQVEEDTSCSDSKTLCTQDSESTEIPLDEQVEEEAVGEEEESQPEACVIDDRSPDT

[5] = molecular target: T3, Mu-type opioid receptor (Homo sapiens, UniProt P35372); experiment: biochemical; assay type: functional
T3 sequence (P35372 whole entry): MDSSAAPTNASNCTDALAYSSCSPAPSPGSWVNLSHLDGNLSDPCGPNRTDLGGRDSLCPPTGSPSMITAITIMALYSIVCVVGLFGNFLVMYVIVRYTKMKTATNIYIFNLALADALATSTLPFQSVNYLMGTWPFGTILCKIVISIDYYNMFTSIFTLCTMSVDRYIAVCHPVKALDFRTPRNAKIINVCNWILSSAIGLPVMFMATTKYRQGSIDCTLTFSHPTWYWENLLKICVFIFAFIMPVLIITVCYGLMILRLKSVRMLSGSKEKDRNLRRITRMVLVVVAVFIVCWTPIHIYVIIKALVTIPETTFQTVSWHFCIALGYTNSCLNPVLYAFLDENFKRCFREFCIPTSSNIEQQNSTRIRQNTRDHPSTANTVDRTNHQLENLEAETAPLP

[6] = molecular target: 5-hydroxytryptamine receptor 2B (Homo sapiens, UniProt P41595)
Chain of 5-hydroxytryptamine receptor 2B (P41595 whole entry): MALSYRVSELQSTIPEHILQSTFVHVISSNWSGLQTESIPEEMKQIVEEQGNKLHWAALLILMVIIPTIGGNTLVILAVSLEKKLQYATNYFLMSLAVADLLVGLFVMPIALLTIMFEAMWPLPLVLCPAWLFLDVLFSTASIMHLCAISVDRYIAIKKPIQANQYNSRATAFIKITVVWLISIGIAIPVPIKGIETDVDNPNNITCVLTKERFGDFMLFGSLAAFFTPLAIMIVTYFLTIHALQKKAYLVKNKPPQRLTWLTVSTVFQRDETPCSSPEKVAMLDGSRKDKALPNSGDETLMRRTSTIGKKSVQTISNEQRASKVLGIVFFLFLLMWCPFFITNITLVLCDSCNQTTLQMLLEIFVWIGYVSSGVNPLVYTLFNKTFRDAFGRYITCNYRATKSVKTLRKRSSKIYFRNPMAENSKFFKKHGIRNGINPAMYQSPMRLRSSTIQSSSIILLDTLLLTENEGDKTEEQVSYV

[7] = molecular target: Cannabinoid receptor 1 (Homo sapiens, UniProt P21554); assay type: functional, cell-based
Chain of Cannabinoid receptor 1 (P21554 whole entry): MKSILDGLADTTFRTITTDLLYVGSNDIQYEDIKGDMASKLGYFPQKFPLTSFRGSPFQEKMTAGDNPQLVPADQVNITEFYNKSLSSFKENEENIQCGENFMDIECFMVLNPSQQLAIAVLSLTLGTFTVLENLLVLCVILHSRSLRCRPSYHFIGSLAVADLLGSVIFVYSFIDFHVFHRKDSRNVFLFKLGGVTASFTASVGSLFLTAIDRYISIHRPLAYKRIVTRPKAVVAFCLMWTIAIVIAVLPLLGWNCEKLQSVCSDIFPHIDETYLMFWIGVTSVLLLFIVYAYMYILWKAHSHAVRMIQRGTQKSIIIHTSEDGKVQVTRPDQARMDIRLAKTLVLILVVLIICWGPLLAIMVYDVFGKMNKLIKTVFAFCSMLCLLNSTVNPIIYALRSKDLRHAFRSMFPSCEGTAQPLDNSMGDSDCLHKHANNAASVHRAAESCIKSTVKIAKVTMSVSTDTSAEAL

[8] = molecular target: Gamma-aminobutyric acid receptor subunit alpha-1/alpha-2/beta-2/gamma-2 (Homo sapiens, UniProt P14867+P18507+P47869+P47870); assay type: functional, cell-based
[9] = molecular target: T4, Endothelin-1 receptor (Homo sapiens, UniProt P25101)
T4 sequence (P25101 whole entry): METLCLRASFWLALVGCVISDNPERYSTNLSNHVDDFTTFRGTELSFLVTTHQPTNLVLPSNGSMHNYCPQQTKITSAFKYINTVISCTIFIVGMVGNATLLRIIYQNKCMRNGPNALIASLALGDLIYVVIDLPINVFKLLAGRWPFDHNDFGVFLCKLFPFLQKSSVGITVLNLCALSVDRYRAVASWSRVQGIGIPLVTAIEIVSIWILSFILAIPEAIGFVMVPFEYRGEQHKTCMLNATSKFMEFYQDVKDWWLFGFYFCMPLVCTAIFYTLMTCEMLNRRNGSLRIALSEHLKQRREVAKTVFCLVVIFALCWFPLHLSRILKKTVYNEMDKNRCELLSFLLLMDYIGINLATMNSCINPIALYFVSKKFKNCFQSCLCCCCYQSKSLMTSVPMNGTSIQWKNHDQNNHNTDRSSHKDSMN

[10] = molecular target: T3, Mu-type opioid receptor
[11] = molecular target: T5, B2 bradykinin receptor (Homo sapiens, UniProt P30411)
T5 sequence (P30411 whole entry): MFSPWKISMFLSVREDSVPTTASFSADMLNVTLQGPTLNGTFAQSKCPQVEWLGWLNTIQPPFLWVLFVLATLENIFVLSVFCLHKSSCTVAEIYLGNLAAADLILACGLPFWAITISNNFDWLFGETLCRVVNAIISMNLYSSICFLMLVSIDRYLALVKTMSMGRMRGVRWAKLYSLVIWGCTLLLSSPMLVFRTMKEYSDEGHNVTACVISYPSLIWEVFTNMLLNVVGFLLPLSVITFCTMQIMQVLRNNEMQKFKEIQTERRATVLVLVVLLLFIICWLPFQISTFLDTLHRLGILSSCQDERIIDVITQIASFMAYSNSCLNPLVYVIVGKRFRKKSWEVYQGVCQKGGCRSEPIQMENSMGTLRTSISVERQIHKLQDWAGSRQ

[12] = molecular target: T2, Progesterone receptor; assay type: functional
[13] = molecular target: D(1A) dopamine receptor (Homo sapiens, UniProt P21728); assay type: functional, cell-based
Chain of D(1A) dopamine receptor (P21728 whole entry): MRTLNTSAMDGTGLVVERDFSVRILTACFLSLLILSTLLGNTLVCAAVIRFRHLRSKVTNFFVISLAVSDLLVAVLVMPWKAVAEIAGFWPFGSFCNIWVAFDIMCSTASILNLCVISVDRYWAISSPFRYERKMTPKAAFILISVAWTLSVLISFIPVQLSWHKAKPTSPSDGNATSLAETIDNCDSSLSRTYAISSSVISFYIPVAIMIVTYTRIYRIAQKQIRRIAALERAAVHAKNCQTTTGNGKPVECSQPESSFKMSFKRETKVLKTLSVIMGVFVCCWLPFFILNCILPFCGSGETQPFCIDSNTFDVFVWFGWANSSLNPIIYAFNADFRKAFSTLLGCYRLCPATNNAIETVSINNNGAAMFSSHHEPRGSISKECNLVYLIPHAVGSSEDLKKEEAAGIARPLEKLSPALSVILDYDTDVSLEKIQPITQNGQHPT

[14] = molecular target: Voltage-dependent N-type calcium channel subunit alpha-1B (Rattus norvegicus, UniProt Q02294); assay type: functional
Chain of Voltage-dependent N-type calcium channel subunit alpha-1B (Q02294 whole entry): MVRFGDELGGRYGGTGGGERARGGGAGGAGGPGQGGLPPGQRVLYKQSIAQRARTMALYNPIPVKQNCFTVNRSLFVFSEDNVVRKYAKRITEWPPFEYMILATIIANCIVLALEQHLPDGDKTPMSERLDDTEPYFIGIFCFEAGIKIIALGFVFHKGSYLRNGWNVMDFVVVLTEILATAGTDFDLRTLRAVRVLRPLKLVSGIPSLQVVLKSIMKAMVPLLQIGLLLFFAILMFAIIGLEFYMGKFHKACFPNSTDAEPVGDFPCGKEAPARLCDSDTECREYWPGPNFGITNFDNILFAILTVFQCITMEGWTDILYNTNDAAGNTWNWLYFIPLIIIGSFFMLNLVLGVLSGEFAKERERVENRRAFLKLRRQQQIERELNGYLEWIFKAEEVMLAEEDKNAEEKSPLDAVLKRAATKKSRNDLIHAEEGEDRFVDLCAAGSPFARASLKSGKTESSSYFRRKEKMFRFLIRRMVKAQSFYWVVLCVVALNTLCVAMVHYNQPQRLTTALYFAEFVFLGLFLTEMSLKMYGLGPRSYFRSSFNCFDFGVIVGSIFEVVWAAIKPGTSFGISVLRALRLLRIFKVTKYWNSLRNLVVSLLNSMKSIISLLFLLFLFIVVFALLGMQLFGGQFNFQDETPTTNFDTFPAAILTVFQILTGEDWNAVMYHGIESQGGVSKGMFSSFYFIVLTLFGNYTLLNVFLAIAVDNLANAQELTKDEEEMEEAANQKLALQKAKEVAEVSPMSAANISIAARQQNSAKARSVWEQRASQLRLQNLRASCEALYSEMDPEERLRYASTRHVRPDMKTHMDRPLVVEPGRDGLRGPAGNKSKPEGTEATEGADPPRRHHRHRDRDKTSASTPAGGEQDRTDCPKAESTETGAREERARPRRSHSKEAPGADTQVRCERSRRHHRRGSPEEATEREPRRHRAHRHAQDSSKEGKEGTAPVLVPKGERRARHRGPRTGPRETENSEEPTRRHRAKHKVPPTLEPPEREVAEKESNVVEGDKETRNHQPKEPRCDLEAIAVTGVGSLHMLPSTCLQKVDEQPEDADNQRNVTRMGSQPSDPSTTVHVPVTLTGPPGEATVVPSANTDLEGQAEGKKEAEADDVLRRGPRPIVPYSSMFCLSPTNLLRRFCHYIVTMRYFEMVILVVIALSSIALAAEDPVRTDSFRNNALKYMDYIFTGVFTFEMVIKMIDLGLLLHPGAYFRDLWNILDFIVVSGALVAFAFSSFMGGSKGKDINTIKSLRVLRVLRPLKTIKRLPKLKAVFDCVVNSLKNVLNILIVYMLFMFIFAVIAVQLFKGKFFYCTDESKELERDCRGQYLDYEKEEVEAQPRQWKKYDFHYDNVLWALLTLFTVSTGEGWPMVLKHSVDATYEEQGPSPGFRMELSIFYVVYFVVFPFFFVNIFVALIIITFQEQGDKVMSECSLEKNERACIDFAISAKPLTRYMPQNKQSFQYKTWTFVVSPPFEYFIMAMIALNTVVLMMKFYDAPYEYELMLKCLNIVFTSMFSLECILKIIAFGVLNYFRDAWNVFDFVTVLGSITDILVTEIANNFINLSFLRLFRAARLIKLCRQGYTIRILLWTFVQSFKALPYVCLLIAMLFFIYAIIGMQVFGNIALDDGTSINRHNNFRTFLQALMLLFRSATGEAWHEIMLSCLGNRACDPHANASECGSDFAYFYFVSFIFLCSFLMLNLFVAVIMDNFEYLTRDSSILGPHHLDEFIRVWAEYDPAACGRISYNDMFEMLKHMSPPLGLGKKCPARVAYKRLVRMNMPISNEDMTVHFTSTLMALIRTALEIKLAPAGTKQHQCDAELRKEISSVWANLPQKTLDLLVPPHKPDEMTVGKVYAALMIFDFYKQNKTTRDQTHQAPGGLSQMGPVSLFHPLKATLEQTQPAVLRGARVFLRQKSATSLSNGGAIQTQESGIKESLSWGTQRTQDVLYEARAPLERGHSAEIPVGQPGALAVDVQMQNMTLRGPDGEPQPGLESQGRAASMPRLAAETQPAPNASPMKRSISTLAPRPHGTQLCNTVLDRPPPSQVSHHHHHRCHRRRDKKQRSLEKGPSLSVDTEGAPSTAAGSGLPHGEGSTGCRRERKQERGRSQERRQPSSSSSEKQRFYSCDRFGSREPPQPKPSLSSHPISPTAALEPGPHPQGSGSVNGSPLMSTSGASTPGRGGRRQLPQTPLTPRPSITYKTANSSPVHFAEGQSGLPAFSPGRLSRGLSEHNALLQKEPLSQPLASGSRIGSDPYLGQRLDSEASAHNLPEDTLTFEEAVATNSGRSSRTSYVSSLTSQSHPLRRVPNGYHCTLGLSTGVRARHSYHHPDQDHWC

Measured: AC50
Further: assay procedure not described here.

COC(=O)[C@H](c1ccccc1Cl)N1CCc2sccc2C1 [CLOPIDOGREL]
13 µM: [10]
11 µM: [1]
> 10 µM: [6] | [14]
19 µM: [13]
> 30 µM: all other assays above

CC(C)C[C@H](CN)CC(=O)O [PREGABALIN]
20.2 µM: [3]
> 10 µM: [14]
not listed: [6]
> 30 µM: all other assays above

CCCN(CCC)CCc1cccc2c1CC(=O)N2 [ROPINIROLE]
9.67 µM: [10]
27 µM: [6]
12 µM: [1]
> 10 µM: [2] | [14]
> 30 µM: all other assays above

CC(=O)S[C@@H]1CC2=CC(=O)CC[C@]2(C)[C@H]2CC[C@@]3(C)[C@@H](CC[C@@]34CCC(=O)O4)[C@H]12 [SPIRONOLACTONE]
> 10 µM: [2] | [6] | [14]
not listed: [3] | [5] | [12]
> 30 µM: all other assays above
